Patent US20260306502A1, “MITOCHONDRIAL UNCOUPLERS FOR TREATMENT OF METABOLIC DISEASES AND CANCER” (Mito Biopharma, LLC, priority 2022, published 2026)
Entries after “also recorded” stand apart in the source; their conditions may differ.

Columns and labels:
TGF-β signaling pathway [1] = assay: TGF-β signaling pathway activation (Smad2/3 phosphorylation) in LX-2 cells, immunoblotting; format: cell-based, human; conditions: 6 hrs, FIG. 17B
Experimental: Cells were then harvested, and immunoblotting analyses was performed with antibodies against p-Smad2/3 (phosphorylated Smad2/3), Smad2/3, or GAPDH, as indicated.

[2] = tested on: cultured mammalian cells, the NIH-3T3 cells, C2C12 cells, and other mammalian cell lines; assay: Mitochondrial membrane potential (MMP) assay, TMRE (or DilC1(5)) staining, related to OCR induction; format: cell-based; conditions: in words; TMRE and DilC1(5) staining
Experimental: Mitochondrial membrane potential assay was performed using the standard TMRE (tetramethylrhodamine ethyl ester) staining method with cultured mammalian cells, the NIH-3T3 cells, C2C12 cells, and other mammalian cell lines. Cells were seeded in 6-well plates and cultured in DMEM medium supplemented with 10% fetal bovine serum and 2 mM glutamine. Cells were allowed to grow to the logarithmic growth phase prior to experiments. The cells were treated with each individual compound at various concentrations for two hours, followed by staining with TMRE at a final concentration of 100 nM for 15 minutes. The cells were then washed once with PBS, and examined under fluorescence microscopy. Cells treated with various concentrations of niclosamide ethanolamine were used as a positive control.
In some examples, mitochondrial membrane potential was measured with DilC1(5) staining. Briefly, DilC1(5) was added to the cells to 50 nM final concentration and the cells were incubated at 37° C., 5% CO2, for 15 to 30 minutes. Cells were washed once by adding 2 mL of warm phosphate-buffered saline (PBS). Mitochondrial staining was determined by fluorescence microscopy with 633 nm excitation using standard filters for far-red emission.
Using the ratio between C10% TMRE (the concentration at which 10% MMP remains, i.e. 90% MMP is lost) and Cmin-OCR (the concentration at which minimal OCR induction is observed), we categorized the MMP-retaining uncouplers into two groups.

MC38 cells = assay: Anti-cancer effect in combination with a PD-1 inhibitor, MC38 cells transplanted in liver; format: in vivo, mouse; conditions: in words
From the text: FIG. 20A is the experimental design (see Example B12). Briefly, C57/Bl6 mice intrahepatically transplanted with MC38 cancer cells (day 0) were subject to various treatments starting on day 7: aPD-1 or isotype, mice were either treated with PD-1 antibody or its isotype antibody (control) by intraperitoneal (IP) injection on indicated days (PD-1 antibody has a half-life of over 1 week in mice); #64 or vehicle, mice were either treated with Compound #64 or vehicle by daily gavage. FIG. 20B is a table depicting outcomes of the experiments described in FIG. 20A and Example B12. aPD-1+#64 represents mice treated with PD-1 antibody (IP) and #64 (daily gavage); aPD-1 represents mice treated with PD-1 antibody (IP) and vehicle (gavage); control, represents mice treated with isotype antibody (IP) and vehicle (gavage); n is number of mice in each group. Tumor-positive is the number of tumor-bearing mice in each group; tumor-free is the number of tumor-free mice in each group; tumor-free % is the percentage of tumor-free animals in each group. […]
The experimental design is illustrated in FIG. 20A. Mouse colon cancer cells, MC38, were transplanted in livers of immune competent B57/Bl6 mice, and the effect of the combinatory treatment was determined. […] Tumor incidence and volume were determined.

TGF-β signaling pathway [3] = assay: TGF-β signaling pathway activation (Smad2/3 phosphorylation) in T cells (Jurkat, primary mouse CD8+), immunoblotting; format: cell-based, human Jurkat cells and mouse primary T-cells; conditions: Jurkat and mouse primary T-cells, 6 hours, FIG. 19
Experimental: Jurkat cells (a human T-cell cancer cell line) and the primary mouse CD8+ cells (T-cells) were tested. The cells were treated with TGF-β (10 ng/ml) alone, or TGF-β (10 ng/ml) plus compound at various concentrations (e.g. 0.5, 1.0, 2.0 μM), or treated with vehicle (control), for 6 hours. The cells were then harvested, and cell lysates were subjected to immunoblotting analyses with antibodies against Smad2/3, phosphorylated Smad2/3, and GAPDH.

NIH3T3 = assay: Cell growth inhibition assay (SRB), NIH3T3; format: cell-based; conditions: Mus musculus, NIH3T3, 48 h
Experimental: Cell growth inhibition assays were performed using a protocol standardized by National Cancer Institute (NCI) for evaluating anti-cancer drugs. Various mammalian cell lines were used for the assays. Briefly, the cells were inoculated into 96 well microtiter plates. After cell inoculation, the microtiter plates were incubated for cell growth for 24 h prior to the addition of compounds. After 24 h, two plates of each cell line were fixed in situ with TCA, to represent a measurement of the cell population for each cell line at the time of compound addition (Tz). Test compounds were solubilized in dimethyl sulfoxide. At the time of test compound addition, five 10-fold or ½ log serial dilutions were made to provide a total of five test compound concentrations plus control. Aliquots of 100 μl of these different test compound dilutions were added to the appropriate microtiter wells already containing 100 μl of the medium, resulting in the required final test compound concentrations. […] The bound stain was subsequently solubilized with 10 mM trizma base, and the absorbance was read on an automated plate reader at a wavelength of 515 nm. Using the seven absorbance measurements [time zero, (Tz), control growth, (C), and test growth in the presence of a compound at the five concentration levels (Ti)], the percentage growth was calculated at each of the test compound concentrations levels.

SMILES | effect on TGF-β signaling pathway activation (Smad2/3 phosphorylation) (TGF-β signaling pathway [1]) | effect on mitochondrial membrane potential (MMP) [2] | efficacy in combinatory therapy with PD-1 antibody in treating metastatic cancer in mice (MC38 cells) | effect on TGF-β signaling pathway activation in T cells (TGF-β signaling pathway [3]) | GI50 (NIH3T3) [µM]
COCCOCc1cc(C(F)(F)F)cc2sc(NC(=O)c3cc(Cl)cc(CN4C[C@@H](C)O[C@@H](C)C4)c3O)nc12 [Compound 64, 5-chloro-3-((cis-2,6-dimethylmorpholino)methyl)-2-hydroxy-N-(4-((2-methoxyethoxy)methyl)-6-(trifluoromethyl)benzo[d]thiazol-2-yl)benzamide] | blocks activation of TGF-β signaling pathway at early stages by inhibiting Smad2/3 phosphorylation | minor loss of MMP; also recorded: without significantly decreasing MMP over a wide concentration range; also recorded: without drastically dissipating mitochondrial membrane potential | efficacious in combinatory therapy with PD-1 antibody | effectively blocks TGF-β signaling pathway activation in T cells | 
COCCN(CCOC)Cc1cc(Cl)cc(C(=O)Nc2nc3ccc(C(F)(F)F)cc3s2)c1O [Compound 25, 3-((bis(2-methoxyethyl)amino)methyl)-5-chloro-2-hydroxy-N-(6-(trifluoromethyl)benzo[d]thiazol-2-yl)benzamide] |  | does not cause observable MMP reduction; also recorded: does not appear to reduce MMP over a wide concentration range; also recorded: without reducing MMP |  |  | > 20
